Results from ChEMBL document CHEMBL1124916, “Neural networks applied to quantitative structure-activity relationship analysis” (1990).

Legend:
[1] = Evaluation for the Anti-pentylenetetrazole effect.; assay type: functional; set-up: unit not given here
[2] = Compound was evaluated for the Anti-fighting behavior.; assay type: functional; set-up: scale not given here

Compound: CCC(C)CN1C(=O)CN=C(c2ccccc2)c2cc(Cl)ccc21 (stereo unspecified)
- Anti-pent effect [1]: 4.99
- Anti-fighting behaviour [2]: 3.53

Compound: CCC(C)CN1C(=O)CN=C(c2ccccc2)c2cc([N+](=O)[O-])ccc21 (stereo unspecified)
- Anti-pent effect [1]: 4.8
- Anti-fighting behaviour [2]: 3.77

Compound: CN(C)C(=O)CN1C(=O)CN=C(c2ccccc2)c2cc(Cl)ccc21
- Anti-pent effect [1]: 5.35
- Anti-fighting behaviour [2]: 4.25

Compound: O=C1CN=C(c2ccccc2)c2cc(C(F)(F)F)ccc2N1
- Anti-pent effect [1]: 5.48
- Anti-fighting behaviour [2]: 4.48

Compound: O=C1CN=C(c2ccccc2C(F)(F)F)c2cc([N+](=O)[O-])ccc2N1
- Anti-pent effect [1]: 5.7
- Anti-fighting behaviour [2]: 4.54

Compound: COc1ccccc1C1=NCC(=O)Nc2ccc(Cl)cc21
- Anti-pent effect [1]: 4.6
- Anti-fighting behaviour [2]: 3.48

Compound: O=C1CN=C(c2ccccc2Cl)c2cc([N+](=O)[O-])ccc2N1
- Anti-pent effect [1]: 6.3
- Anti-fighting behaviour [2]: 4.2

Compound: CNC(=O)CN1C(=O)CN=C(c2ccccc2)c2cc(C(F)(F)F)ccc21
- Anti-pent effect [1]: 5.06
- Anti-fighting behaviour [2]: 3.69

Compound: CCN(CC)CCN1C(=O)CN=C(c2ccccc2F)c2cc(Cl)ccc21
- Anti-pent effect [1]: 5.38
- Anti-fighting behaviour [2]: 4.29

Compound: O=C1CN=C(c2ccccc2)c2cc(Cl)ccc2N1CC1CC1
- Anti-pent effect [1]: 4.9
- Anti-fighting behaviour [2]: 4.51

Compound: CCN1C(=O)CN=C(c2ccccc2)c2cc(Cl)ccc21
- Anti-pent effect [1]: 4.9
- Anti-fighting behaviour [2]: 4.17

Compound: N#Cc1ccc2c(c1)C(c1ccccc1F)=NCC(=O)N2
- Anti-pent effect [1]: 5.63
- Anti-fighting behaviour [2]: 4.75

Compound: C=CCN1C(=O)CN=C(c2ccccc2)c2cc(C(F)(F)F)ccc21
- Anti-pent effect [1]: 5.03
- Anti-fighting behaviour [2]: 4.54

Compound: CN1C(=O)CN=C(c2ccccc2C(F)(F)F)c2cc([N+](=O)[O-])ccc21
- Anti-pent effect [1]: 5.71
- Anti-fighting behaviour [2]: 4.86

Compound: CN(C)CCN1C(=O)CN=C(c2ccccc2)c2cc(C(F)(F)F)ccc21
- Anti-pent effect [1]: 4.76
- Anti-fighting behaviour [2]: 4.27

Compound: O=C1CN=C(c2ccccc2C(F)(F)F)c2cc(C(F)(F)F)ccc2N1
- Anti-pent effect [1]: 4.97
- Anti-fighting behaviour [2]: 4.27

Compound: N#Cc1ccc2c(c1)C(c1ccccc1)=NCC(=O)N2
- Anti-pent effect [1]: 5.3
- Anti-fighting behaviour [2]: 3.81

Compound: O=C1CN=C(c2ccccc2F)c2cc(Cl)ccc2N1
- Anti-pent effect [1]: 6.46
- Anti-fighting behaviour [2]: 4.76

Compound: O=C1CN=C(c2ccccc2Cl)c2cc(Cl)ccc2N1
- Anti-pent effect [1]: 5.85
- Anti-fighting behaviour [2]: 5.18

Compound: O=C1CN=C(c2ccccc2)c2cc(Cl)ccc2N1Cc1ccccc1
- Anti-pent effect [1]: 4.64
- Anti-fighting behaviour [2]: 3.56

Compound: CN1C(=O)CN=C(c2ccccc2)c2cc([N+](=O)[O-])ccc21
- Anti-pent effect [1]: 5.62
- Anti-fighting behaviour [2]: 5.07

Compound: O=C1CN=C(c2ccccc2)c2cc(F)ccc2N1
- Anti-fighting behaviour [2]: 3.4

Compound: Cc1ccccc1C1=NCC(=O)Nc2ccc(Cl)cc21
- Anti-pent effect [1]: 4.57
- Anti-fighting behaviour [2]: 3.45

Compound: O=C1CN=C(c2ccccc2[N+](=O)[O-])c2cc([N+](=O)[O-])ccc2N1
- Anti-pent effect [1]: 5.97
- Anti-fighting behaviour [2]: 3.91

Compound: CNC(=O)CN1C(=O)CN=C(c2ccccc2)c2cc(Cl)ccc21
- Anti-pent effect [1]: 5.83
- Anti-fighting behaviour [2]: 3.63

Compound: O=C1CN=C(c2ccccc2)c2cc(Cl)ccc2N1CCCO
- Anti-pent effect [1]: 4.34
- Anti-fighting behaviour [2]: 3.61

Compound: CN(C)CCCN1C(=O)CN=C(c2ccccc2)c2cc(Cl)ccc21
- Anti-pent effect [1]: 3.38

Compound: CN(C)c1ccc2c(c1)C(c1ccccc1)=NCC(=O)N2
- Anti-pent effect [1]: 3.84

Compound: NN1C(=O)CN=C(c2ccccc2)c2cc([N+](=O)[O-])ccc21
- Anti-pent effect [1]: 5.77
- Anti-fighting behaviour [2]: 5.17

Compound: O=C1CN=C(c2ccccc2)c2cc(Cl)ccc2N1
- Anti-pent effect [1]: 4.65

Compound: CCSc1ccc2c(c1)C(c1ccccc1)=NCC(=O)N2
- Anti-pent effect [1]: 3.57

Compound: O=C1CN=C(c2ccccc2)c2ccccc2N1
- Anti-fighting behaviour [2]: 3.37

Compound: C[S+]([O-])c1ccc2c(c1)C(c1ccccc1)=NCC(=O)N2 (stereo unspecified)
- Anti-pent effect [1]: 4.08

Compound: CN1C(=O)CN=C(c2ccccc2F)c2cc(F)ccc21
- Anti-pent effect [1]: 3.33

Compound: CCCCSc1ccc2c(c1)C(c1ccccc1)=NCC(=O)N2
- Anti-pent effect [1]: 3.79
